Results: the supplement of paper PMC10307832

Assays:
Experiment in all cases: relative viability (nuclei count vs DMSO), 5 days (fraction); higher = more cells survive
[1] = tested on: NCI-H1734
Summary of the method: (§1)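 After 5 days of treatment, lung cancer cells in 1536-well plates were fixed and stained in a single step (final 0.05% Triton X-100, 1% formaldehyde, 1 ug/ml Hoechst) and their nuclei counted on 4× images. Treatment had been applied by pin tool the day after seeding as one drug alone or as a fixed anchor-drug dose with five library-drug doses (not always all listed) in √10 steps. Relative viability is the nuclei count of treated wells divided by that of vehicle wells, and values are medians of duplicate plates.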

[2] = tested on: NCI-H2342
Summary of the method: as §1

[3] = tested on: NCI-H1793
Summary of the method: as §1

[4] = tested on: HOP-62
Summary of the method: as §1

[5] = tested on: NCI-H2347
Summary of the method: as §1

[6] = tested on: NCI-H647
Summary of the method: as §1

[7] = tested on: EKVX
Summary of the method: as §1

[8] = tested on: SK-MES-1
Summary of the method: as §1

[9] = tested on: NCI-H1355
Summary of the method: as §1

[10] = tested on: NCI-H838
Summary of the method: as §1

[11] = tested on: COR-L 105
Summary of the method: as §1

[12] = tested on: NCI-H1993
Summary of the method: as §1

[13] = tested on: COR-L23
Summary of the method: as §1

[14] = tested on: UMC-11
Summary of the method: as §1

[15] = tested on: PC-14
Summary of the method: as §1

[16] = tested on: NCI-H1395
Summary of the method: as §1

[17] = tested on: NCI-H2228
Summary of the method: as §1

[18] = tested on: NCI-H1755
Summary of the method: as §1

[19] = tested on: NCI-H2170
Summary of the method: as §1

[20] = tested on: HCC-15
Summary of the method: as §1

[21] = tested on: NCI-H2009
Summary of the method: as §1

[22] = tested on: HARA
Summary of the method: as §1

[23] = tested on: NCI-H358
Summary of the method: as §1

SMILES: NC(=O)Nc1cc(-c2cccc(F)c2)sc1C(=O)N[C@H]1CCCNC1 [AZD7762] + Cc1cc(Nc2cc(N3CCN(C)CC3)nc(Sc3ccc(NC(=O)C4CC4)cc3)n2)n[nH]1 [Tozasertib] (partner 0.1 µM)
- relative viability ([1]; first compound 0.01 µM): 0.263
- relative viability ([1]; first compound 0.03162 µM): 0.25
- relative viability ([1]; first compound 0.1 µM): 0.234
- relative viability ([1]; first compound 0.3162 µM): 0.22
- relative viability ([1]; first compound 1 µM): 0.199
- relative viability ([2]; first compound 0.01 µM): 0.489
- relative viability ([2]; first compound 0.03162 µM): 0.501
- relative viability ([2]; first compound 0.1 µM): 0.502
- relative viability ([2]; first compound 0.3162 µM): 0.455
- relative viability ([2]; first compound 1 µM): 0.487
- relative viability ([3]; first compound 0.01 µM): 0.395
- relative viability ([3]; first compound 0.03162 µM): 0.403
- relative viability ([3]; first compound 0.1 µM): 0.314
- relative viability ([3]; first compound 0.3162 µM): 0.374
- relative viability ([3]; first compound 1 µM): 0.198
- relative viability ([4]; first compound 0.01 µM): 0.439
- relative viability ([4]; first compound 0.03162 µM): 0.376
- relative viability ([4]; first compound 0.1 µM): 0.378
- relative viability ([4]; first compound 0.3162 µM): 0.339
- relative viability ([4]; first compound 1 µM): 0.219
- relative viability ([5]; first compound 0.01 µM): 0.62
- relative viability ([5]; first compound 0.03162 µM): 0.551
- relative viability ([5]; first compound 0.1 µM): 0.585
- relative viability ([5]; first compound 0.3162 µM): 0.567
- relative viability ([5]; first compound 1 µM): 0.521
- relative viability ([6]; first compound 0.01 µM): 0.379
- relative viability ([6]; first compound 0.03162 µM): 0.218
- relative viability ([6]; first compound 0.1 µM): 0.314
- relative viability ([6]; first compound 0.3162 µM): 0.254
- relative viability ([6]; first compound 1 µM): 0.0439
- relative viability ([7]; first compound 0.01 µM): 0.393
- relative viability ([7]; first compound 0.03162 µM): 0.353
- relative viability ([7]; first compound 0.1 µM): 0.414
- relative viability ([7]; first compound 0.3162 µM): 0.394
- relative viability ([7]; first compound 1 µM): 0.255
- relative viability ([8]; first compound 0.01 µM): 0.936
- relative viability ([8]; first compound 0.03162 µM): 0.865
- relative viability ([8]; first compound 0.1 µM): 0.798
- relative viability ([8]; first compound 0.3162 µM): 0.262
- relative viability ([8]; first compound 1 µM): 0.129
- relative viability ([9]; first compound 0.01 µM): 0.621
- relative viability ([9]; first compound 0.03162 µM): 0.693
- relative viability ([9]; first compound 0.1 µM): 0.566
- relative viability ([9]; first compound 0.3162 µM): 0.666
- relative viability ([9]; first compound 1 µM): 0.532
- relative viability ([10]; first compound 0.01 µM): 0.269
- relative viability ([10]; first compound 0.03162 µM): 0.299
- relative viability ([10]; first compound 0.1 µM): 0.244
- relative viability ([10]; first compound 0.3162 µM): 0.187
- relative viability ([10]; first compound 1 µM): 0.128
- relative viability ([11]; first compound 0.01 µM): 0.348
- relative viability ([11]; first compound 0.03162 µM): 0.311
- relative viability ([11]; first compound 0.1 µM): 0.328
- relative viability ([11]; first compound 0.3162 µM): 0.3
- relative viability ([11]; first compound 1 µM): 0.258
- relative viability ([12]; first compound 0.01 µM): 0.654
- relative viability ([12]; first compound 0.03162 µM): 0.579
- relative viability ([12]; first compound 0.1 µM): 0.628
- relative viability ([12]; first compound 0.3162 µM): 0.641
- relative viability ([12]; first compound 1 µM): 0.547
- relative viability ([13]; first compound 0.01 µM): 0.198
- relative viability ([13]; first compound 0.03162 µM): 0.229
- relative viability ([13]; first compound 0.1 µM): 0.193
- relative viability ([13]; first compound 0.3162 µM): 0.17
- relative viability ([13]; first compound 1 µM): 0.0829
- relative viability ([14]; first compound 0.01 µM): 0.191
- relative viability ([14]; first compound 0.03162 µM): 0.216
- relative viability ([14]; first compound 0.1 µM): 0.202
- relative viability ([14]; first compound 0.3162 µM): 0.194
- relative viability ([14]; first compound 1 µM): 0.191
- relative viability ([15]; first compound 0.01 µM): 0.69
- relative viability ([15]; first compound 0.03162 µM): 0.544
- relative viability ([15]; first compound 0.1 µM): 0.555
- relative viability ([15]; first compound 0.3162 µM): 0.511
- relative viability ([15]; first compound 1 µM): 0.269
- relative viability ([16]; first compound 0.01 µM): 0.771
- relative viability ([16]; first compound 0.03162 µM): 0.851
- relative viability ([16]; first compound 0.1 µM): 0.742
- relative viability ([16]; first compound 0.3162 µM): 0.673
- relative viability ([16]; first compound 1 µM): 0.386
- relative viability ([17]; first compound 0.01 µM): 0.274
- relative viability ([17]; first compound 0.03162 µM): 0.464
- relative viability ([17]; first compound 0.1 µM): 0.321
- relative viability ([17]; first compound 0.3162 µM): 0.245
- relative viability ([17]; first compound 1 µM): 0.121
- relative viability ([18]; first compound 0.01 µM): 0.767
- relative viability ([18]; first compound 0.03162 µM): 0.572
- relative viability ([18]; first compound 0.1 µM): 0.687
- relative viability ([18]; first compound 0.3162 µM): 0.539
- relative viability ([18]; first compound 1 µM): 0.421
- relative viability ([19]; first compound 0.01 µM): 0.781
- relative viability ([19]; first compound 0.03162 µM): 0.726
- relative viability ([19]; first compound 0.1 µM): 0.697
- relative viability ([19]; first compound 0.3162 µM): 0.788
- relative viability ([19]; first compound 1 µM): 0.726
- relative viability ([20]; first compound 0.01 µM): 0.448
- relative viability ([20]; first compound 0.03162 µM): 0.381
- relative viability ([20]; first compound 0.1 µM): 0.511
- relative viability ([20]; first compound 0.3162 µM): 0.432
- relative viability ([20]; first compound 1 µM): 0.212
- relative viability ([21]; first compound 0.01 µM): 0.857
- relative viability ([21]; first compound 0.03162 µM): 0.703
- relative viability ([21]; first compound 0.1 µM): 0.688
- relative viability ([21]; first compound 0.3162 µM): 0.543
- relative viability ([21]; first compound 1 µM): 0.384
- relative viability ([22]; first compound 0.01 µM): 0.113
- relative viability ([22]; first compound 0.03162 µM): 0.107
- relative viability ([22]; first compound 0.1 µM): 0.12
- relative viability ([22]; first compound 0.3162 µM): 0.103
- relative viability ([22]; first compound 1 µM): 0.0534
- relative viability ([23]; first compound 0.01 µM): 0.0979
- relative viability ([23]; first compound 0.03162 µM): 0.088
- relative viability ([23]; first compound 0.1 µM): 0.109
- relative viability ([23]; first compound 0.3162 µM): 0.0755
- relative viability ([23]; first compound 1 µM): 0.0734
